Test results from patent US20260262643A1, “HERBICIDAL BENZOXAZINES” (FMC CORPORATION, priority 2022, published 2026).

Key:
[1] = test system: barnyardgrass; experiment: Test C preemergence; type: in vivo, Echinochloa crusgalli; conditions: 0 to 100 scale (0 no effect, 100 complete control); for Plant response rating, Barnyardgrass: Preemergence, 500 g ai/ha, visual rating after 10 days; for Barnyardgrass plant response rating: preemergence, 125 g ai/ha
Procedure, shortened: (§1)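 Visual injury ratings on a 0–100 scale (100 = complete control) were made against untreated controls 10 days after treatment in the greenhouse. Compounds, formulated with surfactant in non-phytotoxic solvent, were sprayed on soil preemergence or onto one- to two-leaf plants 2–10 cm tall postemergence.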

[2] = test system: blackgrass; experiment: Test C preemergence; type: in vivo, Alopecurus myosuroides; conditions: 0 to 100 scale (0 no effect, 100 complete control); for Plant response rating, Blackgrass: Preemergence, 500 g ai/ha, visual rating after 10 days; for Blackgrass plant response rating: Test C, preemergence, 125 g ai/ha
Procedure, shortened: as §1

[3] = test system: corn; experiment: Test C preemergence; type: in vivo, Zea mays; conditions: preemergence, 0 to 100 scale (0 no effect, 100 complete control)
Procedure, shortened: as §1

[4] = test system: green foxtail; experiment: Test C preemergence; type: in vivo, Setaria viridis; conditions: 0 to 100 scale (0 no effect, 100 complete control); for Foxtail, Green plant response rating: preemergence
Procedure, shortened: as §1

[5] = test system: kochia; experiment: Test C preemergence; type: in vivo, Bassia scoparia; conditions: 0 to 100 scale (0 no effect, 100 complete control); for Kochia plant response rating: preemergence
Procedure, shortened: as §1

[6] = test system: oat, wild; experiment: Test C preemergence; type: in vivo, Avena fatua; conditions: 0 to 100 scale (0 no effect, 100 complete control); for Oat, Wild plant response rating: preemergence
Procedure, shortened: as §1

[7] = test system: pigweed, palmer; experiment: Test C preemergence; type: in vivo, Amaranthus palmeri; conditions: 0 to 100 scale (0 no effect, 100 complete control); for Pigweed, Palmer plant response rating: preemergence
Procedure, shortened: as §1

[8] = test system: ragweed; experiment: Test C preemergence; type: in vivo, Ambrosia artemisiifolia; conditions: 0 to 100 scale (0 no effect, 100 complete control); for Ragweed plant response rating: preemergence
Procedure, shortened: as §1

[9] = test system: ryegrass, Italian; experiment: Test C preemergence; type: in vivo, Lolium multiflorum; conditions: 0 to 100 scale (0 no effect, 100 complete control); for Ryegrass, Italian plant response rating: preemergence
Procedure, shortened: as §1

[10] = test system: soybean; experiment: Test C preemergence; type: in vivo, Glycine max; conditions: 0 to 100 scale (0 no effect, 100 complete control); for Soybean plant response rating: preemergence
Procedure, shortened: as §1

[11] = test system: wheat; experiment: Test C preemergence; type: in vivo, Triticum aestivum; conditions: 0 to 100 scale (0 no effect, 100 complete control); for Wheat plant response rating: preemergence
Procedure, shortened: as §1

[12] = test system: barnyardgrass; experiment: Test C postemergence; type: in vivo, Echinochloa crusgalli; conditions: 10 days
Procedure, shortened: as §1

[13] = test system: blackgrass; experiment: Test C postemergence; type: in vivo, Alopecurus myosuroides; conditions: 10 days
Procedure, shortened: as §1

[14] = test system: corn; experiment: Test C postemergence; type: in vivo, Zea mays; conditions: 10 days
Procedure, shortened: as §1

[15] = test system: green foxtail; experiment: Test C postemergence; type: in vivo, Setaria viridis; conditions: 10 days
Procedure, shortened: as §1

[16] = test system: kochia; experiment: Test C postemergence; type: in vivo, Bassia scoparia; conditions: 10 days
Procedure, shortened: as §1

[17] = test system: oat, wild; experiment: Test C postemergence; type: in vivo, Avena fatua; conditions: 10 days
Procedure, shortened: as §1

[18] = test system: pigweed, palmer; experiment: Test C postemergence; type: in vivo, Amaranthus palmeri; conditions: 10 days
Procedure, shortened: as §1

[19] = test system: ragweed; experiment: Test C postemergence; type: in vivo, Ambrosia artemisiifolia; conditions: 10 days
Procedure, shortened: as §1

[20] = test system: ryegrass, Italian; experiment: Test C postemergence; type: in vivo, Lolium multiflorum; conditions: 10 days
Procedure, shortened: as §1

[21] = test system: soybean; experiment: Test C postemergence; type: in vivo, Glycine max; conditions: 10 days
Procedure, shortened: as §1

[22] = test system: wheat; experiment: Test C postemergence; type: in vivo, Triticum aestivum; conditions: 10 days
Procedure, shortened: as §1

[23] = test system: galium; experiment: Test C postemergence; type: in vivo, Galium aparine; conditions: 10 days
Procedure, shortened: as §1

[24] = test system: horseweed; experiment: Test C postemergence; type: in vivo, Erigeron canadensis; conditions: 10 days
Procedure, shortened: as §1

[25] = test system: barnyardgrass; experiment: Test D flooded paddy test; type: in vivo, Echinochloa crus-galli; conditions: 250 g ai/ha, applied to paddy water, visual rating after 13 to 14 days, scale 0 to 100 (0 no effect, 100 complete control)
Procedure, shortened: (§2)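 Visual ratings from 0, meaning no effect, to 100, meaning complete control, were assigned against untreated controls 13 to 14 days after compounds were added to the floodwater of pots kept 3 cm deep, with plants at the 2-leaf stage.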

[26] = test system: ducksalad; experiment: Test D flooded paddy test; type: in vivo, Heteranthera limosa; conditions: 250 g ai/ha, applied to paddy water, visual rating after 13 to 14 days, scale 0 to 100 (0 no effect, 100 complete control)
Procedure, shortened: as §2

[27] = test system: rice; experiment: Test D flooded paddy test; type: in vivo, Oryza sativa; conditions: 250 g ai/ha, applied to paddy water, visual rating after 13 to 14 days, scale 0 to 100 (0 no effect, 100 complete control)
Procedure, shortened: as §2

[28] = test system: sedge, umbrella; experiment: Test D flooded paddy test; type: in vivo, Cyperus difformis; conditions: 250 g ai/ha, applied to paddy water, visual rating after 13 to 14 days, scale 0 to 100 (0 no effect, 100 complete control)
Procedure, shortened: as §2

[29] = 125 g ai/ha, postemergence, 0 to 100 scale, 0 no effect, 100 complete control
[30] = Postemergence, 500 g ai/ha, visual 0 to 100 scale (0 no effect, 100 complete control)
[31] = Preemergence, 500 g ai/ha, visual rating after 10 days

COC[C@H]1CN(C(=O)c2cc(-n3cnc(C4CCC4)n3)ccc2C)c2cccc(Cl)c2O1 [Compound 267]
Plant response rating, Barnyardgrass [1]: 80
Barnyardgrass plant response rating ([1]; Test C): 60
Plant response rating, Blackgrass [2]: 60
Blackgrass plant response rating [2]: 20
Corn plant response rating ([3]; 500 g ai/ha): 10
Corn plant response rating ([3]; Test C, 125 g ai/ha): 0
Foxtail, Green plant response rating ([4]; 500 g ai/ha): 100
Foxtail, Green plant response rating ([4]; Test C, 125 g ai/ha): 100
Kochia plant response rating ([5]; 500 g ai/ha): 90
Kochia plant response rating ([5]; Test C, 125 g ai/ha): 90
Oat, Wild plant response rating ([6]; 500 g ai/ha): 60
Oat, Wild plant response rating ([6]; Test C, 125 g ai/ha): 40
Pigweed, Palmer plant response rating ([7]; 500 g ai/ha): 100
Pigweed, Palmer plant response rating ([7]; Test C, 125 g ai/ha): 90
Ragweed plant response rating ([8]; 500 g ai/ha): 60
Ragweed plant response rating ([8]; Test C, 125 g ai/ha): 40
Ryegrass, Italian plant response rating ([9]; 500 g ai/ha): 90
Ryegrass, Italian plant response rating ([9]; Test C, 125 g ai/ha): 70
Soybean plant response rating ([10]; 500 g ai/ha): 90
Soybean plant response rating ([10]; Test C, 125 g ai/ha): 90
Wheat plant response rating ([11]; 500 g ai/ha): 30
Wheat plant response rating ([11]; Test C, 125 g ai/ha): 20
Plant response rating, Barnyardgrass [12, 29]: 60
Plant response rating, Barnyardgrass [12, 30]: 90
Plant response rating, Blackgrass [13, 29]: 30
Plant response rating, Blackgrass [13, 30]: 50
Plant response rating, Corn [14, 29]: 50
Plant response rating, Corn [14, 30]: 90
Plant response rating, Foxtail, Green [15, 29]: 70
Plant response rating, Foxtail, Green [15, 30]: 90
Plant response rating, Kochia [16, 29]: 90
Plant response rating, Oat, Wild [17, 29]: 0
Plant response rating, Pigweed, Palmer [18, 29]: 90
Plant response rating, Ragweed [19, 29]: 70
Plant response rating, Ryegrass, Italian [20, 29]: 60
Plant response rating, Soybean [21, 29]: 100
Plant response rating, Wheat [22, 29]: 20
Plant response rating, Galium [23, 29]: 100
Plant response rating, Galium [23, 30]: 100
Plant response rating, Horseweed [24, 29]: 60
Plant response rating, Horseweed [24, 30]: 50
Plant response rating, Barnyardgrass (Flood) [25]: 35
Plant response rating, Ducksalad (Flood) [26]: 50
Plant response rating, Rice (Flood) [27]: 25
Plant response rating, Sedge, Umbrella (Flood) [28]: 98

Cc1ccc(-n2cnc(C3(C(F)(F)F)CCC3)n2)cc1C(=O)N1C[C@H](C)Oc2c(Cl)cccc21 [Compound 168]
Barnyardgrass plant response rating [1]: 50
Plant response rating, Barnyardgrass [1]: 70
Plant response rating, Blackgrass [2]: 60
Blackgrass plant response rating [2]: 20
Corn plant response rating ([3]; Test C, 125 g ai/ha): 0
Plant response rating, Foxtail, Green [4, 31]: 100
Foxtail, Green plant response rating ([4]; Test C, 125 g ai/ha): 50
Plant response rating, Kochia [5, 31]: 50
Kochia plant response rating ([5]; Test C, 125 g ai/ha): 0
Plant response rating, Oat, Wild [6, 31]: 20
Oat, Wild plant response rating ([6]; Test C, 125 g ai/ha): 0
Plant response rating, Pigweed, Palmer [7, 31]: 100
Pigweed, Palmer plant response rating ([7]; Test C, 125 g ai/ha): 100
Plant response rating, Ragweed [8, 31]: 60
Ragweed plant response rating ([8]; Test C, 125 g ai/ha): 30
Plant response rating, Ryegrass, Italian [9, 31]: 90
Ryegrass, Italian plant response rating ([9]; Test C, 125 g ai/ha): 70
Plant response rating, Soybean [10, 31]: 60
Soybean plant response rating ([10]; Test C, 125 g ai/ha): 60
Plant response rating, Wheat [11, 31]: 20
Wheat plant response rating ([11]; Test C, 125 g ai/ha): 0
Plant response rating, Barnyardgrass [12, 29]: 10
Plant response rating, Barnyardgrass [12, 30]: 30
Plant response rating, Blackgrass [13, 29]: 0
Plant response rating, Blackgrass [13, 30]: 0
Plant response rating, Corn [14, 29]: 10
Plant response rating, Corn [14, 30]: 10
Plant response rating, Foxtail, Green [15, 29]: 20
Plant response rating, Foxtail, Green [15, 30]: 30
Plant response rating, Kochia [16, 29]: 80
Plant response rating, Kochia [16, 30]: 80
Plant response rating, Oat, Wild [17, 29]: 0
Plant response rating, Oat, Wild [17, 30]: 0
Plant response rating, Pigweed, Palmer [18, 29]: 70
Plant response rating, Pigweed, Palmer [18, 30]: 90
Plant response rating, Ragweed [19, 29]: 60
Plant response rating, Ragweed [19, 30]: 70
Plant response rating, Ryegrass, Italian [20, 29]: 20
Plant response rating, Ryegrass, Italian [20, 30]: 40
Plant response rating, Soybean [21, 29]: 100
Plant response rating, Soybean [21, 30]: 100
Plant response rating, Wheat [22, 29]: 10
Plant response rating, Wheat [22, 30]: 20
Plant response rating, Galium [23, 29]: 80
Plant response rating, Galium [23, 30]: 90
Plant response rating, Horseweed [24, 29]: 0
Plant response rating, Horseweed [24, 30]: 10
Plant response rating, Barnyardgrass (Flood) [25]: 0
Plant response rating, Ducksalad (Flood) [26]: 0
Plant response rating, Rice (Flood) [27]: 0
Plant response rating, Sedge, Umbrella (Flood) [28]: 0
